Numbers after ± are expanded uncertainties.
Assay: xn = mol fraction of the nth substance listed
Conditions: Liquid, Vibrating tube method

Cc1ccc(C)cc1 [1,4-dimethylbenzene] + COC(=O)OC
mass density [kg/m3]
Conditions | x2 = 0.0432 | x2 = 0.195 | x2 = 0.3968 | x2 = 0.4933 | x2 = 0.5296 | x2 = 0.5993 | x2 = 0.7034 | x2 = 0.8023 | x2 = 0.8921 | x2 = 0.9478
288.15 K, 100 kPa | 871.8 ± 4 | 894.2 ± 4 | 924.2 ± 4 | 944.9 ± 4 | 953.3 ± 4 | 968.4 ± 4 | 992.3 ± 4 | 1010.6 ± 4 | 1038.1 ± 4 | 1052.9 ± 4
288.15 K, 5000 kPa | 875.5 ± 4 | 897.8 ± 4 | 931.9 ± 4 | 950.4 ± 4 | 957.3 ± 4 | 972.4 ± 4 | 996.2 ± 4 | – | 1042.5 ± 4 | 1057.2 ± 4
288.15 K, 10000 kPa | 879.1 ± 4 | 901.3 ± 4 | 935.7 ± 4 | 954.1 ± 4 | 961.2 ± 4 | 976.3 ± 4 | 1000.3 ± 4 | – | 1046.6 ± 4 | 1061.4 ± 4
288.15 K, 20000 kPa | 885.4 ± 4 | 907.8 ± 4 | 942.5 ± 4 | 961.4 ± 4 | 968.3 ± 4 | 983.7 ± 4 | 1007.8 ± 4 | – | 1054.5 ± 4 | 1069.4 ± 4
288.15 K, 30000 kPa | 891.3 ± 4 | 914 ± 4 | 949 ± 4 | 967.9 ± 4 | 974.9 ± 4 | 990.5 ± 4 | 1014.7 ± 4 | – | 1061.5 ± 4 | 1076.7 ± 4
288.15 K, 40000 kPa | 897.1 ± 4 | 920.1 ± 4 | 955.3 ± 4 | 974.3 ± 4 | 980.9 ± 4 | 997.1 ± 4 | 1021.4 ± 4 | – | 1068.7 ± 4 | 1083.8 ± 4
298.15 K, 100 kPa | 863 ± 4 | 884.5 ± 4 | 917.8 ± 4 | 935.8 ± 4 | 942.5 ± 4 | 957.3 ± 4 | 980.5 ± 4 | 998.4 ± 4 | 1025.5 ± 4 | 1040 ± 4
298.15 K, 5000 kPa | 867.3 ± 4 | 888.3 ± 4 | 922.5 ± 4 | 940.6 ± 4 | 947.1 ± 4 | 962 ± 4 | 985.4 ± 4 | 1003.4 ± 4 | 1030.6 ± 4 | 1044.9 ± 4
298.15 K, 10000 kPa | 870.4 ± 4 | 892.1 ± 4 | 925.8 ± 4 | 944 ± 4 | 950.7 ± 4 | 965.7 ± 4 | 989.1 ± 4 | – | 1034.7 ± 4 | 1049 ± 4
298.15 K, 20000 kPa | 877.1 ± 4 | 899.2 ± 4 | 933.2 ± 4 | 951.6 ± 4 | 958.2 ± 4 | 973.4 ± 4 | 997 ± 4 | – | 1042.9 ± 4 | 1057.5 ± 4
298.15 K, 30000 kPa | 883.4 ± 4 | 905.5 ± 4 | 939.9 ± 4 | 958.7 ± 4 | 965.4 ± 4 | 980.5 ± 4 | 1004.4 ± 4 | 1022.7 ± 4 | 1050.6 ± 4 | 1065 ± 4
298.15 K, 40000 kPa | 889.1 ± 4 | 911.7 ± 4 | 946.5 ± 4 | 965.1 ± 4 | 972 ± 4 | 987.3 ± 4 | 1011.2 ± 4 | 1030.1 ± 4 | 1057.9 ± 4 | 1072.7 ± 4
308.15 K, 100 kPa | 854.3 ± 4 | 875.2 ± 4 | 907.6 ± 4 | 925.2 ± 4 | 931.7 ± 4 | 946.3 ± 4 | 969 ± 4 | – | 1013.1 ± 4 | 1027.2 ± 4
308.15 K, 5000 kPa | 858.1 ± 4 | 879.3 ± 4 | 912.1 ± 4 | 929.7 ± 4 | 936.2 ± 4 | 950.8 ± 4 | 973.7 ± 4 | – | 1018 ± 4 | 1032.1 ± 4
308.15 K, 10000 kPa | 862 ± 4 | 883.3 ± 4 | 916.2 ± 4 | 934.1 ± 4 | 940.4 ± 4 | 955.2 ± 4 | 978.2 ± 4 | – | 1022.7 ± 4 | 1036.8 ± 4
308.15 K, 20000 kPa | 869.1 ± 4 | 890.7 ± 4 | 924 ± 4 | 941.8 ± 4 | 948.4 ± 4 | 958.3 ± 4 | 986.4 ± 4 | 1004.4 ± 4 | 1031.5 ± 4 | 1045.7 ± 4
308.15 K, 30000 kPa | 875.7 ± 4 | 897.5 ± 4 | 931.2 ± 4 | 949.4 ± 4 | 956 ± 4 | 970.9 ± 4 | 994.2 ± 4 | 1012.2 ± 4 | 1039.7 ± 4 | 1054 ± 4
308.15 K, 40000 kPa | 881.7 ± 4 | 904 ± 4 | 937.9 ± 4 | 956.3 ± 4 | 963 ± 4 | 978.1 ± 4 | 1001.5 ± 4 | 1019.8 ± 4 | 1047.4 ± 4 | 1061.7 ± 4

Source: the NIST ThermoML archive (doi:10.1016/j.jct.2013.09.039)
